Patent US12246009B2, “Compositions and methods for treating neurodegenerative, myodegenerative, and lysosomal storage disorders” (GEORGETOWN UNIVERSITY, priority 2018, dated 2025)
Entries after “also recorded” stand apart in the source; their conditions may differ.

System: α-synuclein
Test: α-synuclein ELISA in α-synuclein-transfected B35 cells
Type: cell-based, rat
Protocol: Rat neuroblastoma B35 cells were grown in Dulbecco's Modified Eagle's Medium (DMEM) with 10% Fetal Bovine Serum (FBS) and 1% penicillin/streptomycin and incubated at 37° C. with 5% CO2. For the experiments, cells were transferred to 12-well plates (Cat. #150628, ThermoFisher, Waltham, MA) and grown to at least 70% confluence. Transient transfection was performed with 3 μg P301 L tau (Cat. #30145, Addgene) cDNA or 3 μg human α-synuclein cDNA using Fugene HD transfection reagent (Cat. #E2311, Promega, Madison WI) for 24 hours. Cells were treated with 1 mM, 100 μM, 10 μM, 1 μM, 0.1 μM, 0.01 μM, and 0.001 μM dissolved in DMSO or an equivalent 5 ul of DMSO for 5 hours. Cell culture media was collected and cells were harvested using sodium-tris, EDTA, NP-40 (STEN) buffer and centrifuged at 10,000×g for 20 minutes at 4′C and supernatant was collected. Cell viability was determined via lactate dehydrogenase assay (Cat. #88954, Thermofisher) and MTT assay (Cat. #V13154, Thermofisher). Protein was extracted by removing culture medium and adding 0.2 ml 1× STEN buffer (50 mM. Tris (pH 7.6), 150 mM NaCl, 2 mM EDTA, 0.2% NP-40, 0.2% BSA, 20 mM. PMSF and protease cocktail inhibitor) to cell layer and incubated on ice for 10 minutes. The bottom of the well was scraped and allowed to incubate on ice for an additional 10 minutes. Cell lysates were collected, stored at −80° C., and used for additional analyses.
To perform transient transfection of α-synuclein into the rat neuroblastoma B35 cells FuGene® HD Transfection Reagent (Promega Corporation, Madison, WI) was used. Cells were grown in 12-well dishes. […]
Human α-synuclein and p-tau ELISA were performed using 50 μl (1 μg/4 μl) of cell lysates detected with 50 μl primary antibody (3 h) and 100 μl anti-rabbit secondary antibody (30 min) at RT. α-Synuclein levels were measured using human specific ELISA (Invitrogen Inc., Carlsbad, CA) according to manufacturer's protocols. Tau was measured using specific tau at serine 396 according to manufacturer's protocol. […]

Row | Structure (SMILES) | level of alpha-synuclein (transfected B35 cells, 1 mM and 100 uM) | α-synuclein level (α-synuclein-transfected B35 cells, 24 hour transfection)
1 | Cc1cccc(-c2cc3nccc(Nc4cccc(O)c4)c3s2)c1 [BK40196] | significantly reduced | –
2 | Cc1cccc(-c2cc3nccc(N4CCOCC4)c3s2)c1 [BK40197, 4-(2-(m-Tolyl)thieno[3,2-b]pyridin-7-yl)morpholine] | – | does not reduce alpha-synuclein; also recorded: does not significantly reduce
